Converted amounts (≈) assume the structure as drawn. “Also recorded” adds a separate entry of the source.
How the values were obtained:
Type in all cases: physicochemical
[1] = Storage stability of sepiapterin polymorph forms, HPLC purity; design: Impurity RRT 1.06 (HPLC) / Impurity RRT 1.08 (HPLC) / Impurity RRT 1.17 (HPLC) / Impurity RRT 1.21 (HPLC) / Impurity RRT 1.25 (HPLC) / Impurity RRT 0.62 (HPLC) / Impurity RRT 0.89 (HPLC) / Impurity RRT 0.95 (HPLC) / Impurity RRT 0.60 (HPLC): unit not given here; details: for % of Initial / Purity (area %): 10% RH
Method: (§1) Form A and F samples were placed in chambers with silica gel to remove water (the relative humidity was measured to be ˜10% RH) at different temperatures. Form D samples were placed in chambers with water (relative humidity was estimated to be ˜100% RH) at different temperatures.
(§2) The HPLC purities and XRD patterns were obtained for each of Form A/F/D samples stored at various temperatures.
Samples of sepiapterin free base polymorph Forms D, F, and A were stored at room temperature (RT), 35° C., and 50° C. The samples were analyzed by HPLC at 1 week and 4 week intervals.

[2] = Approximate solubility of starting material at RT
[3] = Storage stability of sepiapterin polymorph forms, form change by XRD; details: 10% RH
Method: as §1, §2

[4] = Stability of crystalline Form A to grinding and sieving (XRPD); details: mortar and pestle, 140 mesh sieve
Method: A weight loss of 5.3% was observed up to 150° C. on TGA. […] (peak temperature). The starting material contained large particles with size over 100 μm. It was ground and characterized by XRPD, TGA and DSC. […] A weight loss of 1.9% was observed after N2 purging for 30 min to remove the absorbed water, followed by a second-step weight loss of 13.7% from 30° C. to 150° C. on TGA. […] (peak temperature).
Crystalline form A of sepiapterin of the invention was subjected to grinding and sieving process comprising grinding with a mortar and pestle and passing the material through a 140 mesh sieve. […] This process was repeated until all material was passed through the sieve.

[5] = 35° C./10% RH, 1 w, listed as Polymorph A
[6] = 35° C./10% RH, 4 w, listed as Polymorph A
[7] = 50° C./10% RH, 1 w, listed as Polymorph A
[8] = 50° C./10% RH, 4 w, listed as Polymorph A
[9] = RT/10% RH, 1 w, listed as Polymorph A
[10] = RT/10% RH, 4 w, listed as Polymorph A

Impurity RRT 0.62 (HPLC) ([1]; 35° C./10% RH, 1 w): 0.24
Impurity RRT 0.89 (HPLC) ([1]; 35° C./10% RH, 1 w): <0.05
Impurity RRT 1.06 (HPLC) ([1]; 35° C./10% RH, 1 w): <0.05
Impurity RRT 1.21 (HPLC) ([1]; 35° C./10% RH, 1 w): <0.05
Impurity RRT 1.25 (HPLC) ([1]; 35° C./10% RH, 1 w): <0.05
Impurity RRT 0.95 (HPLC) [1, 5]: 1.36
Impurity RRT 1.08 (HPLC) [1, 5]: 0.28
Impurity RRT 1.17 (HPLC) [1, 5]: 0.16
Sepiapterin RRT 1.00 (HPLC), amount of sepiapterin [1, 5]: 97.97%
Impurity RRT 0.62 (HPLC) ([1]; 35° C./10% RH, 4 w): 1.03
Impurity RRT 0.89 (HPLC) ([1]; 35° C./10% RH, 4 w): <0.05
Impurity RRT 1.06 (HPLC) ([1]; 35° C./10% RH, 4 w): <0.05
Impurity RRT 1.08 (HPLC) ([1]; 35° C./10% RH, 4 w): <0.05
Impurity RRT 1.21 (HPLC) ([1]; 35° C./10% RH, 4 w): <0.05
Impurity RRT 1.25 (HPLC) ([1]; 35° C./10% RH, 4 w): <0.05
Impurity RRT 0.95 (HPLC) [1, 6]: 2.70
Impurity RRT 1.17 (HPLC) [1, 6]: 0.16
Sepiapterin RRT 1.00 (HPLC), amount of sepiapterin [1, 6]: 96.06%
Impurity RRT 0.62 (HPLC) ([1]; 50° C./10% RH, 1 w): 0.68
Impurity RRT 0.89 (HPLC) ([1]; 50° C./10% RH, 1 w): <0.05
Impurity RRT 1.06 (HPLC) ([1]; 50° C./10% RH, 1 w): 0.45
Impurity RRT 1.21 (HPLC) ([1]; 50° C./10% RH, 1 w): <0.05
Impurity RRT 1.25 (HPLC) ([1]; 50° C./10% RH, 1 w): <0.05
Impurity RRT 0.95 (HPLC) [1, 7]: 3.48
Impurity RRT 1.08 (HPLC) [1, 7]: 0.08
Impurity RRT 1.17 (HPLC) [1, 7]: 0.16
Sepiapterin RRT 1.00 (HPLC), amount of sepiapterin [1, 7]: 95.15%
Impurity RRT 0.62 (HPLC) ([1]; 50° C./10% RH, 4 w): 2.59
Impurity RRT 0.89 (HPLC) ([1]; 50° C./10% RH, 4 w): 0.06
Impurity RRT 1.06 (HPLC) ([1]; 50° C./10% RH, 4 w): <0.05
Impurity RRT 1.17 (HPLC) ([1]; 50° C./10% RH, 4 w): 0.17
Impurity RRT 1.21 (HPLC) ([1]; 50° C./10% RH, 4 w): 0.06
Impurity RRT 1.25 (HPLC) ([1]; 50° C./10% RH, 4 w): 0.11
Impurity RRT 0.95 (HPLC) [1, 8]: 7.67
Impurity RRT 1.08 (HPLC) [1, 8]: 0.85
Sepiapterin RRT 1.00 (HPLC), amount of sepiapterin [1, 8]: 88.49%
Sepiapterin RRT 1.00 (HPLC), amount of sepiapterin ([1]; 50° C./10% RH, 4 w, listed as polymorph A): 88.49%
Impurity RRT 0.89 (HPLC) ([1]; Initial): <0.05
Impurity RRT 1.06 (HPLC) ([1]; Initial): <0.05
Impurity RRT 1.08 (HPLC) ([1]; Initial): <0.05
Impurity RRT 1.17 (HPLC) ([1]; Initial): 0.17
Impurity RRT 1.21 (HPLC) ([1]; Initial): <0.05
Impurity RRT 1.25 (HPLC) ([1]; Initial): <0.05
Impurity RRT 0.62 (HPLC) ([1]; Initial, listed as Polymorph A): 0.08
Impurity RRT 0.95 (HPLC) ([1]; Initial, listed as Polymorph A): 0.42
Sepiapterin RRT 1.00 (HPLC), amount of sepiapterin ([1]; Initial, listed as Polymorph A): 99.33%
Sepiapterin RRT 1.00 (HPLC), amount of sepiapterin ([1]; Initial, listed as polymorph A): 99.33%
Impurity RRT 0.62 (HPLC) ([1]; RT/10% RH, 1 w): 0.16
Impurity RRT 0.89 (HPLC) ([1]; RT/10% RH, 1 w): <0.05
Impurity RRT 1.06 (HPLC) ([1]; RT/10% RH, 1 w): <0.05
Impurity RRT 1.17 (HPLC) ([1]; RT/10% RH, 1 w): 0.16
Impurity RRT 1.21 (HPLC) ([1]; RT/10% RH, 1 w): <0.05
Impurity RRT 1.25 (HPLC) ([1]; RT/10% RH, 1 w): <0.05
Impurity RRT 0.95 (HPLC) [1, 9]: 0.77
Impurity RRT 1.08 (HPLC) [1, 9]: 0.11
Sepiapterin RRT 1.00 (HPLC), amount of sepiapterin [1, 9]: 98.80%
Impurity RRT 0.62 (HPLC) ([1]; RT/10% RH, 4 w): 0.37
Impurity RRT 0.89 (HPLC) ([1]; RT/10% RH, 4 w): <0.05
Impurity RRT 1.06 (HPLC) ([1]; RT/10% RH, 4 w): <0.05
Impurity RRT 1.08 (HPLC) ([1]; RT/10% RH, 4 w): <0.05
Impurity RRT 1.17 (HPLC) ([1]; RT/10% RH, 4 w): 0.16
Impurity RRT 1.21 (HPLC) ([1]; RT/10% RH, 4 w): <0.05
Impurity RRT 1.25 (HPLC) ([1]; RT/10% RH, 4 w): <0.05
Impurity RRT 0.95 (HPLC) [1, 10]: 1.29
Sepiapterin RRT 1.00 (HPLC), amount of sepiapterin [1, 10]: 98.18%
Purity of initial samples by HPLC ([1]; initial, before storage, listed as Form λ): 99.3 area %
% of Initial ([1]; storage 1 week, 35° C.): 98.6%
Purity (area %) ([1]; storage 1 week, 35° C.): 98.0 area %
% of Initial ([1]; storage 1 week, 50° C.): 95.8%
Purity (area %) ([1]; storage 1 week, 50° C.): 95.2 area %
% of Initial ([1]; storage 1 week, RT): 99.5%
Purity (area %) ([1]; storage 1 week, RT): 98.8 area %
% of Initial ([1]; storage 4 weeks, 35° C.): 96.7%
Purity (area %) ([1]; storage 4 weeks, 35° C.): 96.1 area %
% of Initial ([1]; storage 4 weeks, 50° C.): 89.1%
Purity (area %) ([1]; storage 4 weeks, 50° C.): 88.5 area %
% of Initial ([1]; storage 4 weeks, RT): 98.8%
Purity (area %) ([1]; storage 4 weeks, RT): 98.2 area %
Stability on storage as determined by HPLC, comparison of forms in words ([1]; storage up to 4 weeks at RT, 35° C., 50° C.): significantly less stability
solubility ([2]; organic solvent or mixture, 1,4-Dioxane, RT): < 1700 µg/mL
solubility ([2]; organic solvent or mixture, 2-MeTHF, RT): < 2000 µg/mL
solubility ([2]; organic solvent or mixture, ACN, RT): < 1700 µg/mL
solubility ([2]; organic solvent or mixture, Acetone, RT): < 1800 µg/mL
solubility ([2]; organic solvent or mixture, CHCl3, RT): < 1600 µg/mL
solubility ([2]; organic solvent or mixture, DCM, RT): < 1500 µg/mL
solubility ([2]; organic solvent or mixture, DMAc, RT): > 28000 µg/mL
solubility ([2]; organic solvent or mixture, DMSO, RT): > 34000 µg/mL
solubility ([2]; organic solvent or mixture, EtOAc, RT): < 2500 µg/mL
solubility ([2]; organic solvent or mixture, EtOH, RT): < 1500 µg/mL
solubility ([2]; organic solvent or mixture, IPA, RT): < 1300 µg/mL
solubility ([2]; organic solvent or mixture, IPAc, RT): < 2700 µg/mL
solubility ([2]; organic solvent or mixture, MIBK, RT): < 2000 µg/mL
solubility ([2]; organic solvent or mixture, MTBE, RT): < 2000 µg/mL
solubility ([2]; organic solvent or mixture, MeOH, RT): 1700 to 3400 µg/mL (≈ 7.17 to 14.3 mM)
solubility ([2]; organic solvent or mixture, NMP, RT): > 48000 µg/mL
solubility ([2]; organic solvent or mixture, THF, RT): < 1900 µg/mL
solubility ([2]; organic solvent or mixture, Toluene, RT): < 2400 µg/mL
solubility ([2]; organic solvent or mixture, n-Heptane, RT): < 2100 µg/mL
solubility ([2]; water, H2O, RT): 1600 to 3200 µg/mL (≈ 6.74 to 13.5 mM)
Form change ([3]; storage 1 week, 35° C.): No
Form change ([3]; storage 1 week, 50° C.): No
Form change ([3]; storage 1 week, RT): No
Form change ([3]; storage 4 weeks, 35° C.): No
Form change ([3]; storage 4 weeks, 50° C.): No
Form change ([3]; storage 4 weeks, RT): No
SMILES: C[C@H](O)C(=O)C1=Nc2c(nc(N)[nH]c2=O)NC1 [Form A, sepiapterin]
Physical form stability to grinding and sieving (XRPD) [4]: no form change was observed after grinding; also recorded: stable to the grinding and sieving process; also recorded: confirms the physical form stability
